Test results as given in US20160106689A1, “USE” (Novabiotics Limited, priority 2014, published 2016).
Converted amounts (≈) assume the structure as drawn. Counter-ions that a name gives are not always drawn. Like-named read-outs stand apart in the source and are kept apart here.

System: Pseudomonas aeruginosa (PAO1)
Assay: MIC100 determination against the type strain of Pseudomonas aeruginosa (PAO1)
Type: cell-based
Settings: for MIC: Pseudomonas aeruginosa
Protocol: The MIC100 using cysteamine, oxidised cysteamine and cystamine against the type strain of Pseudomonas aeruginosa (PAO1) was determined. Cysteamine and ‘oxidised’ cysteamine (containing some cystamine) were consistently equivalent at either 250 μg/ml or (as shown in the summary table below) 500 μg/ml. We oxidised the cysteamine by leaving the powder exposed to the air (in a sterile environment) for 5 days—during which time it changes in appearance (turning from an off white crystalline morphology to more of a white powder). It often also accrues water as it is hygroscopic and can also react with air to produce water.

[1] = PAO1, in CA-MHB, three replicates, repeated three times, read-out: MIC100 against PAO1 in CA-MHB
[2] = PAO1, in MHB, three replicates, repeated three times, read-out: MIC100 against PAO1 in MHB

MIC [1] [µg/mL]	MIC [2] [µg/mL]	MIC (PAO1, text statement, medium not stated, consistently either 250 or 500 across experiments, read-out: MIC100 against PAO1) [µg/mL]	MIC100 against PAO1 (medium not stated, consistently either 250 or 500 across experiments) [µg/mL]	Structure (SMILES)	antibacterial activity (in words) (PAO1, oxidised cysteamine compared with fresh cysteamine)
1000	1000			NCCSSCCN [Cystamine HCl, cystamine]	shown to be antibacterial
500 (≈ 6.48 mM)	500 (≈ 6.48 mM)	250 (≈ 3.24 mM)	500 (≈ 6.48 mM)	NCCS [Cysteamine, cysteamine]	
